Consider 5 compounds from patent publication US20150141336A1, “Pancreatic Peptide Compounds and Use” (Novo Nordisk A/S, priority 2012, published 2015).

SMILES strings stand for the structures. Numbered stars: 1 amine (or outer) side, 2 acyl side, 3 side chain; on linkers, the order of the positions; unused ones are H or OH. Side chains are listed from the residue outwards. Peptide text beside a SMILES is read from it. * marks the point of attachment. C18 diacid = O=C(O)CCCCCCCCCCCCCCCCC(=O)*; γGlu = O=C(O)[C@H](CCC(=O)[*:2])N[*:1]; AEEA = NCCOCCOCC(=O)O

One series can be described thus: Assay (II) PK i.v. minipig, in vivo half-life. Further details: species or system Göttingen mini-pigs. Particulars: male, Göttingen, minipig, iv. The procedure:
An assay useful for measuring the pharmacokinetic (PK) profile of the PP peptide is the following mini-pig PK assay.
Five male Göttingen mini-pigs weighing approximately 18 to 22 kg from Ellegaard Göttingen Minipigs NS, Denmark are included in the study. The mini-pigs have two central venous catheters inserted which are used for intra venous (i.v.) dosing and blood sampling. The test compound is dissolved in 50 mM K2HPO4, 0.05% tween 80, pH=8.0 to a concentration of 180 nmol/ml. For comparison a control compound, such as human PP(1-36), may be administered. The pigs are dosed with 6 nmol test compound/kg body weight. Blood samples are taken at the following time points: pre-dose, 30 minutes, 1, 2, 4, 8, 24, 48, 72, 96, 120, 168 and 240 hours post dosing. The blood samples were collected into test tubes containing EDTA buffer for stabilization and kept on ice for max. 20 minutes before centrifugation. The centrifugation procedure to separate plasma may be: 4° C., approx. 2500 g for 10 minutes. Plasma is collected and immediately transferred to Micronic tubes stored at −20° C. until assayed.
The test compounds were assayed in plasma by Turbulent Flow Chromatography coupled to Liquid Chromatography with subsequent Tandem Mass Spectrometric Detection (TFC/LC/MS/MS). Positive mode ionization and Multiple Reaction Monitoring (MRM) of a multiple protonated species fragmented to a singly charged ion was employed for selectivity. The selectivity of the method allows multiple compounds to be quantified in one sample.
The concentrations of the test compound in samples of unknown concentration were calculated using the peak area as a function of amount. Calibration graphs based on plasma samples spiked with the analyte were constructed by regression analysis. Typical dynamic range for standard assay was 1-2000 nmol/I. The method performance was assured by co-assaying quality control (QC) samples in duplicate at three concentration levels.
Stock and working solutions of analytes were prepared in plasma and incubated by 37° C. for 1 hour.
Sample Preparation: 40.0 μl EDTA-plasma was added 160 μl 50% methanol, 1% formic acid, then vortexed and centrifuged at 16457 g at 4° C. for 20 minutes. The supernatant was transferred to a 96 well plate, plates incubated with 0.4% BSA, 37° C. for ½ hour. Injection volume was 25 μl.
The analysis was carried out on a Sciex API 3000 mass spectrometer (MDS/Sciex, Concord, ON, Canada) using a TurbolonSpray interface. The TFC/LC system consisted of two Flux Rheos 2000 quaternary pumps, a Cohesive VIM module (Cohesive Technologies, Franklin, Mass., USA) and a CTC LC/PAL auto sampler (CTC Analytics, Zingen, Switzerland). The centrifuge employed was a HettichMikro 22R (A. Hettich, Tuttlingen, Germany). For sample clean up a TurboFlow C8 column (0.5×50 mm) (Cohesive Technologies/Thermofisher) was used and the LC separation was done on a Proteo 4 μm column (2.0×50 mm) (Phenomenex, Torrance, Calif., USA). Eluents were isocratic and gradient combinations of methanol, acetonitril, Milli-Q water and formic acid.
Non-compartmental analysis (NCA): Plasma concentration-time profiles are analyzed by non-compartmental pharmacokinetics analysis (NCA) using WinNonlin Professional 5.0 (Pharsight Inc., Mountain View, Calif., USA). NCA is performed using the individual plasma concentration-time profiles from each animal.
For `CC[C@H](C)[C@H](NC(=O)[C@H](Cc1ccc(O)cc1)NC(=O)[C@H](CCCNC(=N)N)NC(=O)[C@H](CCCNC(=N)N)NC(=O)[C@H](CC(C)C)NC(=O)[C@H](CC(=O)O)NC(=O)[C@H](C)NC(=O)[C@H](C)NC(=O)[C@H](Cc1ccc(O)cc1)NC(=O)[C@H](CCC(N)=O)NC(=O)[C@H](C)NC(=O)[C@H](CCSC)NC(=O)[C@H](CCC(N)=O)NC(=O)[C@H](CCC(=O)O)NC(=O)[C@@H]1CCCN1C(=O)[C@@H](NC(=O)[C@H](C)NC(=O)[C@H](CC(N)=O)NC(=O)[C@H](CC(=O)O)NC(=O)CNC(=O)[C@@H]1CCCN1C(=O)[C@H](Cc1ccc(O)cc1)NC(=O)[C@@H](NC(=O)[C@@H]1CCCN1C(=O)[C@H](CCC(=O)O)NC(=O)[C@H](CC(C)C)NC(=O)[C@@H]1CCCN1C(=O)COCCOCCNC(=O)COCCOCCNC(=O)CC[C@H](NC(=O)CCCCCCCCCCCCCCCCC(=O)O)C(=O)O)C(C)C)[C@@H](C)O)C(=O)N[C@@H](CC(N)=O)C(=O)N[C@@H](CCSC)C(=O)N[C@@H](CC(C)C)C(=O)N[C@H](C(=O)N[C@@H](CCCNC(=N)N)C(=O)N1CCC[C@H]1C(=O)N[C@@H](CCCNC(=N)N)C(=O)N[C@@H](Cc1ccc(O)cc1)C(N)=O)[C@@H](C)O` [Compound AF], the “Half-life minipig, Assay (II)” value was found to be 36 h.

The same series, now with this note: male, Göttingen, minipig, iv, Half-life minipig, Assay (II).
With `CC[C@H](C)[C@H](NC(=O)[C@H](Cc1ccc(O)cc1)NC(=O)[C@H](CCCNC(=N)N)NC(=O)[C@H](CCCNC(=N)N)NC(=O)[C@H](CC(C)C)NC(=O)[C@H](CC(=O)O)NC(=O)[C@H](C)NC(=O)[C@H](C)NC(=O)[C@H](Cc1ccc(O)cc1)NC(=O)[C@H](CCC(N)=O)NC(=O)[C@H](C)NC(=O)[C@H](CCSC)NC(=O)[C@H](CCC(N)=O)NC(=O)[C@H](CCC(=O)O)NC(=O)[C@@H]1CCCN1C(=O)[C@@H](NC(=O)[C@H](C)NC(=O)[C@H](CC(N)=O)NC(=O)[C@H](CC(=O)O)NC(=O)CNC(=O)[C@@H]1CCCN1C(=O)[C@H](Cc1ccc(O)cc1)NC(=O)[C@H](CCCCNC(=O)COCCOCCNC(=O)COCCOCCNC(=O)CC[C@H](NC(=O)CCCCCCCCCCCCCCCCC(=O)O)C(=O)O)NC(=O)[C@@H]1CCCN1C(=O)[C@H](CCC(=O)O)NC(=O)[C@H](CC(C)C)NC(=O)[C@@H]1CCCN1)[C@@H](C)O)C(=O)N[C@@H](CC(N)=O)C(=O)N[C@@H](CCSC)C(=O)N[C@@H](CC(C)C)C(=O)N[C@H](C(=O)N[C@@H](CCCNC(=N)N)C(=O)N1CCC[C@H]1C(=O)N[C@@H](CCCNC(=N)N)C(=O)N[C@@H](Cc1ccc(O)cc1)C(N)=O)[C@@H](C)O` [Compound AB], the half-life was 44 h.

As to `CC[C@H](C)[C@H](NC(=O)[C@H](Cc1ccc(O)cc1)NC(=O)[C@H](CCCNC(=N)N)NC(=O)[C@H](CCCNC(=N)N)NC(=O)[C@H](CC(C)C)NC(=O)[C@H](CC(=O)O)NC(=O)[C@H](C)NC(=O)[C@H](C)NC(=O)[C@H](Cc1ccc(O)cc1)NC(=O)[C@H](CCC(N)=O)NC(=O)[C@H](C)NC(=O)[C@H](CCSC)NC(=O)[C@H](CCC(N)=O)NC(=O)[C@H](CCC(=O)O)NC(=O)[C@@H]1CCCN1C(=O)[C@@H](NC(=O)[C@H](C)NC(=O)[C@H](CC(N)=O)NC(=O)[C@H](CC(=O)O)NC(=O)CNC(=O)[C@@H]1CCCN1C(=O)[C@H](Cc1ccc(O)cc1)NC(=O)[C@@H](NC(=O)[C@@H]1CCCN1C(=O)[C@H](CCC(=O)O)NC(=O)[C@H](CC(C)C)NC(=O)[C@@H]1CCCN1)C(C)C)[C@@H](C)O)C(=O)N[C@@H](CCCCNC(=O)COCCOCCNC(=O)COCCOCCNC(=O)CC[C@H](NC(=O)CCCCCCCCCCCCCCCCC(=O)O)C(=O)O)C(=O)N[C@@H](CCSC)C(=O)N[C@@H](CC(C)C)C(=O)N[C@H](C(=O)N[C@@H](CCCNC(=N)N)C(=O)N1CCC[C@H]1C(=O)N[C@@H](CCCNC(=N)N)C(=O)N[C@@H](Cc1ccc(O)cc1)C(N)=O)[C@@H](C)O` [Compound E] (H-PLEPVYPGDNATPEQMAQYAADLRRYIK([AEEA-AEEA-γGlu-C18 diacid])MLTRPRY-NH2; N-terminus and C-terminus assumed), the half-life was 110 h.

For the compound `CC[C@H](C)[C@H](NC(=O)[C@H](Cc1ccc(O)cc1)NC(=O)[C@H](CCCNC(=N)N)NC(=O)[C@H](CCCNC(=N)N)NC(=O)[C@H](CC(C)C)NC(=O)[C@H](CCCCNC(=O)COCCOCCNC(=O)COCCOCCNC(=O)CC[C@H](NC(=O)CCCCCCCCCCCCCCCCC(=O)O)C(=O)O)NC(=O)[C@H](C)NC(=O)[C@H](C)NC(=O)[C@H](Cc1ccc(O)cc1)NC(=O)[C@H](CCC(N)=O)NC(=O)[C@H](C)NC(=O)[C@H](CCSC)NC(=O)[C@H](CCC(N)=O)NC(=O)[C@H](CCC(=O)O)NC(=O)[C@@H]1CCCN1C(=O)[C@@H](NC(=O)[C@H](C)NC(=O)[C@H](CC(N)=O)NC(=O)[C@H](CC(=O)O)NC(=O)CNC(=O)[C@@H]1CCCN1C(=O)[C@H](Cc1ccc(O)cc1)NC(=O)[C@@H](NC(=O)[C@@H]1CCCN1C(=O)[C@H](CCC(=O)O)NC(=O)[C@H](CC(C)C)NC(=O)[C@@H]1CCCN1)C(C)C)[C@@H](C)O)C(=O)N[C@@H](CC(N)=O)C(=O)N[C@@H](CCSC)C(=O)N[C@@H](CC(C)C)C(=O)N[C@H](C(=O)N[C@@H](CCCNC(=N)N)C(=O)N1CCC[C@H]1C(=O)N[C@@H](CCCNC(=N)N)C(=O)N[C@@H](Cc1ccc(O)cc1)C(N)=O)[C@@H](C)O` [Compound K] (H-PLEPVYPGDNATPEQMAQYAAK([AEEA-AEEA-γGlu-C18 diacid])LRRYINMLTRPRY-NH2; N-terminus and C-terminus assumed), the half-life is 30 h.

`CC[C@H](C)[C@H](NC(=O)[C@H](Cc1ccc(O)cc1)NC(=O)[C@H](CCCNC(=N)N)NC(=O)[C@H](CCCNC(=N)N)NC(=O)[C@H](CC(C)C)NC(=O)[C@H](CC(=O)O)NC(=O)[C@H](C)NC(=O)[C@H](C)NC(=O)[C@H](Cc1ccc(O)cc1)NC(=O)[C@H](CCC(N)=O)NC(=O)[C@H](C)NC(=O)[C@H](CCSC)NC(=O)[C@H](CCC(N)=O)NC(=O)[C@H](CCC(=O)O)NC(=O)[C@@H]1CCCN1C(=O)[C@@H](NC(=O)[C@H](C)NC(=O)[C@H](CC(N)=O)NC(=O)[C@H](CC(=O)O)NC(=O)CNC(=O)[C@@H]1CCCN1C(=O)[C@H](Cc1ccc(O)cc1)NC(=O)[C@@H](NC(=O)[C@@H]1CCCN1C(=O)[C@H](CCC(=O)O)NC(=O)[C@H](CCCCNC(=O)COCCOCCNC(=O)COCCOCCNC(=O)CC[C@H](NC(=O)CCCCCCCCCCCCCCCCC(=O)O)C(=O)O)NC(=O)[C@@H]1CCCN1)C(C)C)[C@@H](C)O)C(=O)N[C@@H](CC(N)=O)C(=O)N[C@@H](CCSC)C(=O)N[C@@H](CC(C)C)C(=O)N[C@H](C(=O)N[C@@H](CCCNC(=N)N)C(=O)N1CCC[C@H]1C(=O)N[C@@H](CCCNC(=N)N)C(=O)N[C@@H](Cc1ccc(O)cc1)C(N)=O)[C@@H](C)O` [Compound AE]: the half-life is 45 h.

Consider `CC[C@H](C)[C@H](NC(=O)[C@H](Cc1ccc(O)cc1)NC(=O)[C@H](CCCNC(=N)N)NC(=O)[C@H](CCCNC(=N)N)NC(=O)[C@H](CC(C)C)NC(=O)[C@H](CC(=O)O)NC(=O)[C@H](C)NC(=O)[C@H](C)NC(=O)[C@H](Cc1ccc(O)cc1)NC(=O)[C@H](CCC(N)=O)NC(=O)[C@H](C)NC(=O)[C@H](CCSC)NC(=O)[C@H](CCC(N)=O)NC(=O)[C@H](CCC(=O)O)NC(=O)[C@@H]1CCCN1C(=O)[C@@H](NC(=O)[C@H](C)NC(=O)[C@H](CC(N)=O)NC(=O)[C@H](CC(=O)O)NC(=O)CNC(=O)[C@@H]1CCCN1C(=O)[C@H](Cc1ccc(O)cc1)NC(=O)[C@@H](NC(=O)[C@@H]1CCCN1C(=O)[C@H](CCC(=O)O)NC(=O)[C@H](CC(C)C)NC(=O)[C@@H]1CCCN1C(=O)COCCOCCNC(=O)COCCOCCNC(=O)CC[C@H](NC(=O)CCCCCCCCCCCCCCCCC(=O)O)C(=O)O)C(C)C)[C@@H](C)O)C(=O)N[C@@H](CC(N)=O)C(=O)N[C@@H](CCSC)C(=O)N[C@@H](CC(C)C)C(=O)N[C@H](C(=O)N[C@@H](CCCNC(=N)N)C(=O)N1CCC[C@H]1C(=O)N[C@@H](CCCNC(=N)N)C(=O)N[C@@H](Cc1ccc(O)cc1)C(N)=O)[C@@H](C)O` [Compound AF], for which the half-life was 33 h.

As a reminder, the half-life is the time in which the quantity being followed falls by half.
